The values below come from patent publication US7988957B2, “Gene introduction efficiency enhancer” (Genesis Healthcare Corp., priority 2003, dated 2011).

For test [1], the system named is human glioma cell line U251MG. In words: AAV-vector-mediated EGFP transgene expression, fluorescence microscope. The format is cell-based. The settings on record: 24 hours. As for the experimental part: (§1) FK228 which had been isolated and purified through the method described in Japanese Patent Publication (kokoku) No. 7-64872 was employed as a histone deacetylase inhibitor. The FK228 was dissolved in ethanol for storage. When in use, the FK228 was diluted with a medium, to thereby regulate the FK228 concentration to fall within a range of 0 to 100 ng/mL.
An AAV vector genome plasmid and a helper plasmid were introduced into 293 cells through the calcium phosphate method, and AAV vectors (types 1 to 5) which express EGFP (enhanced green fluorescent protein) under the control of a cytomegalovirus (CMV) promoter were prepared. Specifically, the AAV vector preparation was performed through the method described in the following references. • Reference 1: Methods 2002; 8: 237-247 (described above) • Reference 2: Methods Enzymol 2002; 346: 378-393 (described above) • 3. Cells and Cell Culture (1) Human Glioma Cell Line; U251MG, U87MG
U251MG was obtained from JCRB Cell Bank, National Institute of Health Sciences. […]
(§2) The effect of FK228 on enhancing expression of a transgene was evaluated with glioma cells. Type-2 AAV vector (1×10^4 genome copies/cell) and FK228 (0, 0.01, 0.1, 1, 10, or 100 ng/mL) were added to a culture supernatant of the human glioma cell line U251MG, and 24 hours later, expression of EGFP was observed under a fluorescence microscope.

Test [2] deals with U251MG. Description: Number of viral genome copies taken into cells, real-time PCR. The format is cell-based, human. Conditions: FK228 1 ng/mL. As for the experimental part:
Type-2 AAV vector (1×10^4 genome copies/cell) and FK228 (1 ng/mL) were added to a culture supernatant of U251MG, and the number of viral genome copies taken into cells was semi-quantified by means of real-time PCR (ABI, Prism 7700; QIAGEN, SYBR Green PCR kit QuantiTect) (performed through the method according to Mol. Ther. Aug. 6, 2002 (2): 272-278). After U251MG cells were infected with the type-2 AAV vector, the number of intracellular genome copies was measured in a time-course manner (0, 2, 4, 12, and 24 hours).
(In qPCR the cycle at which signal appears reflects the starting amount.)

Test [3] relates to subcultured human glioma cells (prepared from an operative specimen). Description: AAV-vector-mediated EGFP transgene expression. The format is cell-based. The settings on record: FK228 1 ng/mL. As for the experimental part: as §1
(§3) An AAV vector genome plasmid and a helper plasmid were introduced into 293 cells through the calcium phosphate method, and AAV vectors (types 1 to 5) which express EGFP (enhanced green fluorescent protein) under the control of a cytomegalovirus (CMV) promoter were prepared. […]
as §2
(§4) Similar to the case of U251MG, in the cases of the head and neck cancer cell line HEp-2 and the subcultured human glioma cells (prepared from an operative specimen), the effect of FK228 in enhancing AAV-vector-mediated gene transfer was evaluated.

The test system of test [4] is CD51 (integrin). Description: Percent occurrence of CD51 (integrin)-positive cells by FACS analysis. It is filed as cell-based, human. The settings on record: FK228 0, 0.01, 0.1 or 1 ng/mL; 24 hours; U251MG; FIG. 1A. How it is done: (§5) Type-2 AAV vector (1×10^4 genome copies/cell) and FK228 (0, 0.01, 0.1, or 1 ng/mL) were added to a culture supernatant of U251MG, and 24 hours later, the percent occurrence of cells positive for CD51 (integrin) or EGFP was calculated through FACS analysis. The FACS analysis was performed through a customary method by use of FACSCan (Becton Dickinson, San Jose, Calif.) and CellQuest software (Becton Dickinson, San Jose, Calif.).
(§6) PE-labeled anti-CD51 monoclonal antibody: 13C2 was obtained from Cymbus Biotechnology Ltd., Chandlers Ford, UK. Dead cells were detected by means of 7-amino-actinomycin D (Via-Probe; Pharmingen, San Diego, Calif.).
(§7) Cells were washed with a FACS buffer (PBS containing 5% FBS and 0.05% sodium azide), and then incubated with the antibody on ice for 30 minutes. Fluorescences attributed to EGFP, PE, and Via-Probe were detected by FL1, FL2, and FL3, respectively. Cells negative for Via-Probe; i.e., viable cells, were employed for measuring expression of EGFP and/or CD51.
On the technique in general: In flow cytometry, cells or beads pass a laser one at a time.

For test [5], the system named is U251MG. In words: Percent occurrence of EGFP-positive cells by FACS analysis. The format is cell-based, human. Conditions: FK228 1 ng/mL, type-2 AAV vector, 24 hours, FIG. 1B. How it is done:
as §5, §6, §7

In test [6] the test system is head and neck cancer cell line HEp-2. Description: AAV-vector-mediated EGFP transgene expression. The format is cell-based, human. Conditions: FK228 1 ng/mL. How it is done: as §1, §3, §2, §4

Turning to `C/C=C1\NC(=O)[C@H]2CSSCC/C=C/[C@H](CC(=O)N[C@H](C(C)C)C(=O)N2)OC(=O)[C@H](C(C)C)NC1=O` [FK228], the “EGFP expression enhancing effect” value in test [1] (FK228 at 1 ng/mL or more, type-2 AAV vector) was “remarkable EGFP expression enhancing effect”. Moreover, the “expression of EGFP” value in test [1] (Type-2 AAV vector 1×10^4 genome copies/cell, FK228 0, 0.01, 0.1, 1, 10 or 100 ng/mL) is recorded as “enhanced in an FK228-dose-dependent manner”. The “genome copy number in the FK228-treated group” value in test [2] (24 hours after the infection) is “slight increase”. For the same compound, the “genome copy number, FK228-treated group versus control group (only a solvent)” value in test [2] (type-2 AAV vector, 0, 2, 4, 12 and 24 hours, FIG. 2) is reported as “No significant difference”. Also, the EGFP expression entry in test [3] and in test [6] was “enhanced” throughout. Further, in test [4], the “percent occurrence of integrin-positive cells” value is “gradual increase”. The “percent occurrence of EGFP-positive cells” value in test [5] was “sharply increased”.
